Data from US20060110710A1, “Endodontic ozone therapy” (priority 2001, published 2006).

What was measured:
[1] = 1H NMR evaluation of the oxidative consumption of salivary biomolecules by ozone; settings: O3 for 30 seconds; unstimulated human saliva 0.60 ml; 1H NMR 600 MHz
Text: Ozone is one of nature's most powerful oxidants which accounts for its ability to kill bacteria, spores and viruses. Uniquely, ozone decomposes to a harmless, non-toxic and environmentally safe material (oxygen). In this investigation, a multicomponent evaluation of the oxidative consumption of salivary biomolecules by ozone (O3) has been performed using high resolution proton (^1H) nuclear magnetic resonance (NMR) spectroscopy. The ozone-generating equipment employed in this study was designed by Purezone Ltd. (Ipswich, U.K.). Unstimulated human saliva samples were collected from 8 patients and each of them was divided into two equivalent portions (0.60 ml). The first of these was treated with O3 generated from the above device for a period of 30 seconds; the second group of portions served as controls. Samples were subjected to ^1H NMR analysis at an operating frequency of 600 MHz. […] High field ^1H NMR spectroscopy provides much useful analytical data regarding the fate of O3 in human saliva, information which is of much relevance to its potential therapeutic actions in vivo.

[2] = test system: Microflora from Primary Root Caries; assay: Ozone effect on microflora from primary root caries ex-vivo; format: cell-based; settings: for Mean ± SE of Total cfu (Log10): after 10 seconds of ozone treatment
Text: Primary root carious lesions (PRCL) are a major clinical problem. […] An ozone producing generator (Purezone Ltd., Ipswich, U.K.) was used in this ex-vivo study assessing the use of ozone on PRCL. In this study, soft PRCL requiring restoration were used as these are the most severe type of lesion found in humans. 20 freshly extracted teeth with PRCL requiring restoration were used. After plaque removal using a hand held standard fine nylon fiber sterile toothbrush with sterile water as a lubricant to cleanse the surface, each tooth was then isolated using sterile cotton wool rolls and dried using a dry sterile cotton wool roll. […] Each sample was weighed and immediately placed in 1 ml of Fastidious Anaerobe Broth (FAB). […] They were vortexed for 30 seconds to facilitate the extraction of any micro-organisms from the carious dentine and disperse any aggregates. After decimal dilution with FAB, […] of these was spread on Fastidious Anaerobe Agar (LabM, Bury, […].) supplemented with 5% (v/V) horse blood in an anaerobic chamber at 37° C. for four days. The mean±SE number of each colony type was counted and calculated. The procedure of Example 2 was repeated except that ozonized water was applied to the lesion for 20 seconds. […] The aims of these studies were to evaluate the efficiency of ozone on primary root caries and associated micro-organisms (Streptococcus sobrinus; TH 21 Streptococcus mutans; NCTC 10449). […] In study 2, 40 sterile saliva coated glass beads were put into bijoux bottles with 3 mls of Todd Hewitt broth for control and test groups. S. sobrinus and S. mutans were inoculated and incubated anaerobically overnight. Each glass bead was washed with 2 mls of PBS. […] Subsequently, each glass bead in the test and control groups was placed in 3 mls of Todd Hewitt broth with six more sterile glass beads and were vortexed for 30 seconds. After decimal dilutions, […] were spread on blood agar plates supplemented with 5% (V/V) horse blood and placed in an anaerobic chamber at 37° C. for two days. The number of each colony type was counted and calculated. […] This treatment regime is therefore an effective, quick, conservative and simple method to kill micro-organisms in primary root carious lesions.

[3] = test system: Streptococcus sobrinus; TH 21; assay: Ozone on S. sobrinus on saliva coated glass beads; format: cell-based; settings: 10 seconds of ozone on saliva coated glass beads
Text: The aims of these studies were to evaluate the efficiency of ozone on primary root caries and associated micro-organisms (Streptococcus sobrinus; TH 21 Streptococcus mutans; NCTC 10449). In study 1, 40 soft primary root carious lesions (PRCLs) from freshly extracted teeth were used and randomly divided into two groups to test the exposure to ozone for either 10 or 20 seconds. There was a significant (p<0.001) difference (Mean±SE) between the control samples for either 10 seconds (log10 5.91±0.15) or 20 seconds (log10 6.18±0.21) and ozone treated samples for either 10 seconds (log10 3.57±0.37) or 20 seconds (log10 3.77±0.42). In study 2, 40 sterile saliva coated glass beads were put into bijoux bottles with 3 mls of Todd Hewitt broth for control and test groups. S. sobrinus and S. mutans were inoculated and incubated anaerobically overnight. Each glass bead was washed with 2 mls of PBS. Immediately, 10 seconds of ozone was applied to the glass beads in the test groups. Subsequently, each glass bead in the test and control groups was placed in 3 mls of Todd Hewitt broth with six more sterile glass beads and were vortexed for 30 seconds. After decimal dilutions, […] were spread on blood agar plates supplemented with 5% (V/V) horse blood and placed in an anaerobic chamber at 37° C. for two days. The number of each colony type was counted and calculated. […]

[4] = test system: Inflamed human gingivitis; assay: Effect of ozone on gum disease; format: in vivo; settings: after exposure to ozone
Text: Inflamed human gingivitis is exposed to ozone using the techniques herein described.

[5] = Ozone exposure of bacteria cultures (root canals); format: cell-based, Streptococcus aurous; settings: exposed to ozone
Lactobacillus salivarius = assay: Ozone exposure of bacteria cultures (root canals); format: cell-based; settings: exposed to ozone
[6] = test system: Lactobacillus acidophilus; assay: Ozone exposure of bacteria cultures (root canals); format: cell-based; settings: exposed to ozone
Month ulcerations = assay: Effect of ozone in the treatment of mouth ulcerations; format: in vivo; settings: exposed to ozone
[7] = test system: microorganisms associated with bad breath; assay: Effect of ozone in the treatment of bad breath; format: in vivo; settings: mouth exposed to ozone
Text: Bad breath is caused, in part, by the retention and subsequent degradation of dead cellular material, by microorganisms, sloughed off continuously by a normal, healthy mouth.

In the case of `O=[O+][O-]` [ozone], the “effect of O3 treatment on salivary 3-D-hydroxybutyrate” value [1] is reported as “evidence for the O3-mediated oxidation of salivary 3-D-hydroxybutyrate”, the “effect of O3 treatment on salivary methionine” value [1] is reported as “oxidation of the volatile sulphur compound precursor methionine to its corresponding sulphoxide” and the “effect of O3 treatment on salivary polyunsaturated fatty acids” value [1] is reported as “oxidative consumption of salivary polyunsaturated fatty acids”. The “effect of O3 treatment on salivary pyruvate” value [1] was “oxidative decarboxylation of the salivary electron-donor pyruvate”, the “percentage of micro-organisms killed” value ([2]; 10 seconds of ozone treatment) was “more than 99%” and the “Mean ± SE of Total cfu (Log10)” value ([2]; soft PRCL of freshly extracted teeth) was 3.57±0.37 Log10. The “Mean ± SE of Total cfu (Log10)” value ([2]; soft PRCL of freshly extracted teeth, listed as Ozone) was 3.57 ± 0.37 Log10, the “Total cfu, log10, mean±SE” value ([2]; after 20 seconds of ozone treatment, soft PRCL of freshly extracted teeth) was 3.77±0.42 log10 and the “colony count, log10, Mean±SE” value [3] was 1.09±0.36 log10. For the same compound, the “enzyme levels in extracts from inflamed human gingiva” value [4] was “alleviated and/or reduced”, the “growth of the bacteria cultures” value [5] was “eliminated or inhibited” and the “growth of the bacteria cultures” value (Lactobacillus salivarius) was “eliminated or inhibited”. The “growth of the bacteria cultures” value [6] was “eliminated or inhibited”, the “enzyme levels in the month ulcerations” value (Month ulcerations) was “alleviated and/or reduced” and the “microorganisms in the ulceration” value (Month ulcerations) was “eliminated or reduced”. The “enzyme levels in the month” value [7] was “alleviated and/or reduced” and the “microorganisms associated with bad breath” value [7] was “eliminated or reduced”.
